Results published in patent US12545677B2, “Compounds useful as factor XIa inhibitors” (JANSSEN PHARMACEUTICA NV, priority 2020, dated 2026).

Assays:
Assay in all cases: Human liver microsomes CYP450 cocktail inhibition assay
Assay type in all cases: in vitro ADME
[1] = biological target: T1, CYP2C9 (Homo sapiens, UniProt P11712); details: HLM 0.2 mg/ml, 10 mins; read-out: Calculated IC50, HLM 2C9
T1 construct: Frozen human liver microsomes (HLM) were thawed at 37° C; from tissue; host or cells: human liver microsomes
Text: (§1) Human Liver Microsomes CYP450 Cocktail Inhibition Assay
(§2) The cocktail DDI assay was used to evaluate test compound(s) for potential to cause drug-drug interactions via inhibition of clinically important P450 isoforms (CYP1A2, 2C8, 2C9, 2C19, 2D6, and 3A4) in early discovery. Discrimination of the inhibitory potential of the test compound towards each isoform was achieved by using a cocktail of specific probe substrates which are known to be selectively metabolized to defined metabolites by the isoforms under investigation. For example, dextromethorphan is known to be demethylated exclusively by the 2D6 isoform. Co-incubation of the probe substrates in human liver microsomes (HLM) with the test compound(s) at a range of inhibitor concentrations allows calculation of IC50 values for multiple CYP isoforms simultaneously and therefore offers a higher throughput compared to a traditional single probe assay.
(§3) Methods and Procedures: Final protein concentration in the incubation was 0.2 mg/ml and incubation time was 10 mins. The final total solvent in the incubation was 0.15% DMSO and 0.8% acetonitrile. The assay was automated on a Beckman Biomek FX automated liquid handler with multi-channel pipetting tools (8-channel and 96-channel), on deck reagent cooling capabilities and integrated automated Cytomat incubator (37° C.) with plate shaking facilities (Kendro).
(§4) Test compounds were supplied as 5 mM DMSO stock solutions. 0.1 M Phosphate buffer (pH7.4) was prepared in house using Na2HPO4·12H2O and KH2PO4.
(§5) Frozen human liver microsomes (HLM) were thawed at 37° C. while agitating regularly until the whole volume was thawed, then held on ice. Based on the protein concentration of the HLM batch, the suspension was further diluted in assay buffer and the probe substrate mixture (substrate for each CYP isoform) to yield the final protein concentration of 0.2 mg/mL.
(§6) Probe substrates were prepared separately in assay buffer (phenacetin, tolbutamide, S-mephenytoin, dextromethorphan) or water (amodiaquine, midazolam). These were combined (at the appropriate conc per substrate) with HLM and assay buffer to yield the final Enzyme/Substrate mix.
(§7) The final total solvent in the incubation was 0.15% DMSO and 0.8% acetonitrile. NADPH (5.27 mM) was prepared as a solution in assay buffer (Room Temp). The quenching solution containing deuterated analogues of each of the seven probe substrate metabolites was dissolved at an appropriate concentration in acetonitrile.
(§8) Assay procedure: Samples for incubation were prepared by combining appropriate volumes of Enzyme/Substrate mix (80 μl) and stock solutions of test or reference inhibitors (1 μl solutions added from a dilution series). Following a pre-incubation period (typically, 10 minutes), the reaction was initiated by the addition of NADPH solution (19 μl, 5.27 mM). The samples were incubated at 37° C. for 10 mins. The incubations were quenched by the addition of 1.6 volumes of chilled quenching solution. The incubations were then centrifuged for 10 minutes at 4000 rpm at 4° C. A defined volume of the supernatant (S/N) was transferred into a separate container and diluted with water (S/N: Water=60 μL/180 μL). Each sample was injected onto a UPLC/MS system using an LC/MS method selective for the simultaneous measurement of all seven probe substrate metabolites (and associated deuterated internal standards).
(§9) Calculations and Formulas: Percentage activity was calculated as % activity=(Ri/R)*100 • where Ri and R were the metabolite to internal standard peak area ratios in the presence and absence of TC, respectively. The percentage activity data were then plotted against log (TC concentration) and a curve was fitted to the data to return the IC50 using a data reduction tool within 3DX. […]

[2] = biological target: T2, CYP2D6 (Homo sapiens, UniProt P10635); details: HLM 0.2 mg/ml, 10 mins; read-out: Calculated IC50, HLM 2D6
T2 construct: Frozen human liver microsomes (HLM) were thawed at 37° C; from tissue; host or cells: human liver microsomes
Text: as §1, §2, §3, §4, §5, §6, §7, §8, §9

[3] = biological target: T3, CYP3A4 (Homo sapiens, UniProt P08684); details: HLM 0.2 mg/ml, 10 mins; read-out: Calculated IC50, HLM 3A4
T3 construct: Frozen human liver microsomes (HLM) were thawed at 37° C; from tissue; host or cells: human liver microsomes
Text: as §1, §2, §3, §4, §5, §6, §7, §8, §9

[4] = biological target: T4, CYP2C8 (Homo sapiens, UniProt P10632); details: HLM 0.2 mg/ml, 10 mins; read-out: Calculated IC50, HLM 2C8
T4 construct: Frozen human liver microsomes (HLM) were thawed at 37° C; from tissue; host or cells: human liver microsomes
T4 sequence (P10632 1-490): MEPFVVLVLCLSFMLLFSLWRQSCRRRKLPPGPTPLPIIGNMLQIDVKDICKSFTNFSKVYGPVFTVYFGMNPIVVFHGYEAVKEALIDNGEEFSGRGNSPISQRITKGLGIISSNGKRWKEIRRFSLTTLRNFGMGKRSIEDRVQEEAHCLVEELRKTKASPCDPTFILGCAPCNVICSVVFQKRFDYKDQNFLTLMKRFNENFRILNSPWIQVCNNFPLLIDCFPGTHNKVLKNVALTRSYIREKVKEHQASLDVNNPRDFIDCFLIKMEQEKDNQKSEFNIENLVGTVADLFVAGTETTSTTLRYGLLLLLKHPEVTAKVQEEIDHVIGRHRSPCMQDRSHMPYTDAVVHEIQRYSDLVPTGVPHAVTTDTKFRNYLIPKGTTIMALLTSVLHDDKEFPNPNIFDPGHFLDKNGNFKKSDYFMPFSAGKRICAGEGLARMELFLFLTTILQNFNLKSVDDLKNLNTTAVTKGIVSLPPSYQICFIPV
Text: as §1, §2, §3, §4, §5, §6, §7, §8, §9

[5] = biological target: T5, CYP2C19 (Homo sapiens, UniProt P33261); details: HLM 0.2 mg/ml, 10 mins; read-out: Calculated IC50, HLM 2C19
T5 construct: Frozen human liver microsomes (HLM) were thawed at 37° C; from tissue; host or cells: human liver microsomes
Text: as §1, §2, §3, §4, §5, §6, §7, §8, §9

[6] = biological target: T6, CYP1A2 (Homo sapiens, UniProt P05177); details: HLM 0.2 mg/ml, 10 mins; read-out: Calculated IC50, HLM 1A2
T6 construct: Frozen human liver microsomes (HLM) were thawed at 37° C; from tissue; host or cells: human liver microsomes
T6 sequence (P05177 1-516): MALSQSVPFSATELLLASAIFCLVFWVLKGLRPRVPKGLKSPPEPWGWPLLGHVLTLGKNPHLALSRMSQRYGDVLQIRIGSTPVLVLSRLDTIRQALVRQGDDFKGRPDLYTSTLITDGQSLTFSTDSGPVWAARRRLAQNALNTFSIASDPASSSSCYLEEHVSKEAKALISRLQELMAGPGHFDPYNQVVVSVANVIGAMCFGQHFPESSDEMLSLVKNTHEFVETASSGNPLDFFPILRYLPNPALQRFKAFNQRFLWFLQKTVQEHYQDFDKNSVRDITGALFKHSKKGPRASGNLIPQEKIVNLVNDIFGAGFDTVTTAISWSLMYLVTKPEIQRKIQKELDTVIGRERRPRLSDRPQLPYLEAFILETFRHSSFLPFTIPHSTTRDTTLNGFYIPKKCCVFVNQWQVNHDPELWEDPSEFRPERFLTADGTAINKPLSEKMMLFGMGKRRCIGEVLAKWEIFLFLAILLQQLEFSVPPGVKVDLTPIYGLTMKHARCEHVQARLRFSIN
Text: as §1, §2, §3, §4, §5, §6, §7, §8, §9

T3 sequence (P08684 whole entry): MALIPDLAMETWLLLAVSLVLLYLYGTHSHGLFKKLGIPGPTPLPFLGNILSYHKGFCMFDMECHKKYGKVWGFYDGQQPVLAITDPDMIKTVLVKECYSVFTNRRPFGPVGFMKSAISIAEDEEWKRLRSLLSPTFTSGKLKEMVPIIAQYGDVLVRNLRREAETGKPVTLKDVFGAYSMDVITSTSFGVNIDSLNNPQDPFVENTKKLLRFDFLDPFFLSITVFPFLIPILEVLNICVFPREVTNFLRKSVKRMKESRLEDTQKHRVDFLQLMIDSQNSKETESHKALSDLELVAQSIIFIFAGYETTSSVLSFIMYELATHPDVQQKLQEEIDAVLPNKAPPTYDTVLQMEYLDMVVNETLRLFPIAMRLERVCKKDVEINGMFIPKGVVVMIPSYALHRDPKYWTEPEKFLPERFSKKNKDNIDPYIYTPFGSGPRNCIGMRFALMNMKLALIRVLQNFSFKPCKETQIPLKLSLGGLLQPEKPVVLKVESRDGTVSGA
T5 sequence (P33261 whole entry): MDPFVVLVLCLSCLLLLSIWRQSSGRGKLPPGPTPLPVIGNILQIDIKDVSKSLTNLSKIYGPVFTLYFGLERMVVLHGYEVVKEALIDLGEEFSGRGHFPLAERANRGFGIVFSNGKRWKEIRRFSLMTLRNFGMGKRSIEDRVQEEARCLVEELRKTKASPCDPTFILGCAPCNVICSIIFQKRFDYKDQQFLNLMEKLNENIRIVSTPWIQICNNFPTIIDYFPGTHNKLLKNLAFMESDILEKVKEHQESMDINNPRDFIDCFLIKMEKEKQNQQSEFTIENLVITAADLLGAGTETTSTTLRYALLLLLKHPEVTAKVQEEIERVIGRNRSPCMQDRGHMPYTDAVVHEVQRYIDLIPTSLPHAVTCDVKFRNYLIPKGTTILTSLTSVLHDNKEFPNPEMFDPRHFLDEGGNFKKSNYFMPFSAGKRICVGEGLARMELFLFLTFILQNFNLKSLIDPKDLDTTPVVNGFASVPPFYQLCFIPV
T2 sequence (P10635 whole entry): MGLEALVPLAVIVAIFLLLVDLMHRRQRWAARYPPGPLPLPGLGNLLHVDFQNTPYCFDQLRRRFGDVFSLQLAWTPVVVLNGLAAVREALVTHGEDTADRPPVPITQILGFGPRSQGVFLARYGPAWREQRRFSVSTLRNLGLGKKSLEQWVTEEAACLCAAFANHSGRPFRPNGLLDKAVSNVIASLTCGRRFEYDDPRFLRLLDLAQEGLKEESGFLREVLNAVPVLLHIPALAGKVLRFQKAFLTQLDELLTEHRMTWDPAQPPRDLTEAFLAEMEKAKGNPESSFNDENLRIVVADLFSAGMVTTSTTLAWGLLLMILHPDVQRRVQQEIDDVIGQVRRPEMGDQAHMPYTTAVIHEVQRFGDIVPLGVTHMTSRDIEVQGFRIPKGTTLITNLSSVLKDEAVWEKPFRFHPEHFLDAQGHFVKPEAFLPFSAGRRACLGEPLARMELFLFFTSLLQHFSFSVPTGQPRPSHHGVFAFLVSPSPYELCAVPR
T1 sequence (P11712 whole entry): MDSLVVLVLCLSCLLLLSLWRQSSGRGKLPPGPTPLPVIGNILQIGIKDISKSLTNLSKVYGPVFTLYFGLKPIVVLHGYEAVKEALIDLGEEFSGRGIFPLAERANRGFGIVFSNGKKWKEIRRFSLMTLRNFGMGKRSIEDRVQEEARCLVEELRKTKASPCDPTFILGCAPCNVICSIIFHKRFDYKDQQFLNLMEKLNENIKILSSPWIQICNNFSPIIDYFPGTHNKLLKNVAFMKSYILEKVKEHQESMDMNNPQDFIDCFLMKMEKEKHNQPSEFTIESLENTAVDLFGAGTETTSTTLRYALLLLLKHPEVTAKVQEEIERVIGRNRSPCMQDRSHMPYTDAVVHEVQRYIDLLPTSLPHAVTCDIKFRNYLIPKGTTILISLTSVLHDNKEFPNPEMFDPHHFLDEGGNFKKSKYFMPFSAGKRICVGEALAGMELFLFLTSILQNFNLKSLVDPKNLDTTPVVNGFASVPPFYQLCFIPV

O=C1C=C(c2c(-n3cnnn3)ccc(Cl)c2F)C[C@H]2CC[C@@H](c3ncc(-c4ccnc(CO)c4F)[nH]3)N12 [Compound of formula (I-A), (3S,8aR)-7-(3-Chloro-2-fluoro-6-(1H-tetrazol-1-yl)phenyl)-3-(5-(3-fluoro-2-(hydroxymethyl)pyridin-4-yl)-1H-imidazol-2-yl)-2,3,8,8a-tetrahydroindolizin-5(1H)-one]
IC50 [1]: > 20 µM
IC50 [2]: > 20 µM
IC50 [3]: 14.4 µM
IC50 [4]: > 20 µM
IC50 [5]: > 20 µM
IC50 [6]: > 20 µM
